Where no end group is shown, it is not given here. [ ]: non-standard residue; d: D form. Abu = CC[C@H](N)C(=O)O
Experiments:
Format in all cases: cell-based
3.L2 TCR [1] = details: Fig. 3; CH27 prepulsed with 0.1 µM Hb(64-76)
CH27 B cell lymphoma = details: for Induction of apoptosis of CH27: Fig. 5, 3.L2 clone, 24 h; for Relative Activity (Hb(64-76) arbitrarily assigned 100): Fig. 4, from EC40 in apoptosis assay relative to wild-type peptide
3.L2 TCR [2] = assay: T cell hybridoma agonist assay: IL-2 production by the 3.L2.12 hybridoma; details: Fig. 6, single agonist assay, representative of at least three experiments

| Substance | Induction of apoptosis of CH27 (CH27 B cell lymphoma) | Relative Activity (Hb(64-76) arbitrarily assigned 100) (CH27 B cell lymphoma) | other results |
| --- | --- | --- | --- |
| GKKVITAFDEGLK [D72] |  |  | Concentration at which slight inhibition of the 3.L2.12 response was seen (3.L2 TCR [1]): > 100 µM |
| GKKVITAFMEGLK [M72] |  |  | Concentration at which slight inhibition of the 3.L2.12 response was seen (3.L2 TCR [1]): > 100 µM |
| GKKVITAFSEGLK [$72] | did not induce any apoptosis |  |  |
| GKKVITAFGEGLK [G72] | did not induce any apoptosis |  |  |
| GKKVITAFYEGLK [Y72] |  |  | Concentration at which slight inhibition of the 3.L2.12 response was seen (3.L2 TCR [1]): > 100 µM |
| GKKVITAFCEGLK [C72] |  | 2 |  |
| GKKVITAF[Abu]EGLK [Abu72] |  | 5 |  |
| GKKVITAFVEGLK [V72] |  | 2 |  |
| GKKVITAFNEGLK [Hb(64-76), reference compound] |  | 100 | Concentration at which peptide is active (IL-2 production) (3.L2 TCR [2]): 0.01 µM |
| GKKVITAFTEGLK [T72] |  | 2 |  |
| GKKVITAFLEGLK [L72] | did not induce any apoptosis |  |  |
| GKKVITAFEEGLK [E72] | negative |  |  |

From PMC2192852 (The Journal of Experimental Medicine, 1996)
